# Source: US20260262643A1, “HERBICIDAL BENZOXAZINES” (FMC CORPORATION, priority 2022, published 2026)
# Key:
# [1] = test system: ryegrass, Italian; test: Test C preemergence; assay type: in vivo, Lolium multiflorum; settings: preemergence, 0 to 100 scale (0 no effect, 100 complete control)
# Summary of the method: (§1)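 Test material, in non-phytotoxic solvent with surfactant, was sprayed on the soil directly after seeding (preemergence) or on young plants of 2–10 cm with one to two leaves (postemergence). Greenhouse, 10 days; 0–100 visual control scale.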
# [2] = test system: rice; test: Test D flooded paddy test; assay type: in vivo, Oryza sativa; settings: 250 g ai/ha, applied to paddy water, visual rating after 13 to 14 days, scale 0 to 100 (0 no effect, 100 complete control)
# Summary of the method: (§2)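 Visual ratings from 0, meaning no effect, to 100, meaning complete control, were assigned against untreated controls 13 to 14 days after compounds were added to the floodwater of pots kept 3 cm deep, with plants at the 2-leaf stage.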
# [3] = test system: barnyardgrass; test: Test D flooded paddy test; assay type: in vivo, Echinochloa crus-galli; settings: 250 g ai/ha, applied to paddy water, visual rating after 13 to 14 days, scale 0 to 100 (0 no effect, 100 complete control)
# Summary of the method: as §2
# [4] = test system: galium; test: Test C postemergence; assay type: in vivo, Galium aparine; settings: 10 days, 0 to 100 scale (0 no effect, 100 complete control)
# Summary of the method: as §1
# [5] = test system: sedge, umbrella; test: Test D flooded paddy test; assay type: in vivo, Cyperus difformis; settings: 250 g ai/ha, applied to paddy water, visual rating after 13 to 14 days, scale 0 to 100 (0 no effect, 100 complete control)
# Summary of the method: as §2
# [6] = test system: wheat; test: Test C preemergence; assay type: in vivo, Triticum aestivum; settings: preemergence, 0 to 100 scale (0 no effect, 100 complete control)
# Summary of the method: as §1
# [7] = test system: green foxtail; test: Test C postemergence; assay type: in vivo, Setaria viridis; settings: 10 days, 0 to 100 scale (0 no effect, 100 complete control)
# Summary of the method: as §1
# [8] = test system: oat, wild; test: Test C postemergence; assay type: in vivo, Avena fatua; settings: 10 days, 0 to 100 scale (0 no effect, 100 complete control)
# Summary of the method: as §1
# [9] = test system: blackgrass; test: Test C preemergence; assay type: in vivo, Alopecurus myosuroides; settings: 500 g ai/ha, preemergence; 0 to 100 scale (0 no effect, 100 complete control)
# Summary of the method: as §1
# [10] = test system: ducksalad; test: Test D flooded paddy test; assay type: in vivo, Heteranthera limosa; settings: 250 g ai/ha, applied to paddy water, visual rating after 13 to 14 days, scale 0 to 100 (0 no effect, 100 complete control)
# Summary of the method: as §2
# [11] = test system: ragweed; test: Test C preemergence; assay type: in vivo, Ambrosia artemisiifolia; settings: preemergence, 0 to 100 scale (0 no effect, 100 complete control)
# Summary of the method: as §1
# [12] = test system: ryegrass, Italian; test: Test C postemergence; assay type: in vivo, Lolium multiflorum; settings: 10 days, 0 to 100 scale (0 no effect, 100 complete control)
# Summary of the method: as §1
# [13] = test system: barnyardgrass; test: Test C postemergence; assay type: in vivo, Echinochloa crusgalli; settings: 10 days, 0 to 100 scale (0 no effect, 100 complete control)
# Summary of the method: as §1
# [14] = test system: kochia; test: Test C postemergence; assay type: in vivo, Bassia scoparia; settings: 10 days, 0 to 100 scale (0 no effect, 100 complete control)
# Summary of the method: as §1
# [15] = test system: green foxtail; test: Test C preemergence; assay type: in vivo, Setaria viridis; settings: preemergence, 0 to 100 scale (0 no effect, 100 complete control)
# Summary of the method: as §1
# [16] = test system: pigweed, palmer; test: Test C preemergence; assay type: in vivo, Amaranthus palmeri; settings: preemergence, 0 to 100 scale (0 no effect, 100 complete control)
# Summary of the method: as §1
# [17] = test system: barnyardgrass; test: Test C preemergence; assay type: in vivo, Echinochloa crusgalli; settings: preemergence, 0 to 100 scale (0 no effect, 100 complete control)
# Summary of the method: as §1
# [18] = test system: ragweed; test: Test C postemergence; assay type: in vivo, Ambrosia artemisiifolia; settings: 10 days, 0 to 100 scale (0 no effect, 100 complete control)
# Summary of the method: as §1
# [19] = test system: corn; test: Test C postemergence; assay type: in vivo, Zea mays; settings: 10 days, 0 to 100 scale (0 no effect, 100 complete control)
# Summary of the method: as §1
# [20] = test system: kochia; test: Test C preemergence; assay type: in vivo, Bassia scoparia; settings: preemergence, 0 to 100 scale (0 no effect, 100 complete control)
# Summary of the method: as §1
# [21] = test system: soybean; test: Test C preemergence; assay type: in vivo, Glycine max; settings: preemergence, 0 to 100 scale (0 no effect, 100 complete control)
# Summary of the method: as §1
# [22] = test system: blackgrass; test: Test C postemergence; assay type: in vivo, Alopecurus myosuroides; settings: 10 days, 0 to 100 scale (0 no effect, 100 complete control)
# Summary of the method: as §1
# [23] = test system: oat, wild; test: Test C preemergence; assay type: in vivo, Avena fatua; settings: preemergence, 0 to 100 scale (0 no effect, 100 complete control)
# Summary of the method: as §1
# [24] = test system: pigweed, palmer; test: Test C postemergence; assay type: in vivo, Amaranthus palmeri; settings: 10 days, 0 to 100 scale (0 no effect, 100 complete control)
# Summary of the method: as §1
# [25] = test system: soybean; test: Test C postemergence; assay type: in vivo, Glycine max; settings: 10 days, 0 to 100 scale (0 no effect, 100 complete control)
# Summary of the method: as §1
# [26] = test system: corn; test: Test C preemergence; assay type: in vivo, Zea mays; settings: preemergence, 0 to 100 scale (0 no effect, 100 complete control)
# Summary of the method: as §1
# [27] = test system: wheat; test: Test C postemergence; assay type: in vivo, Triticum aestivum; settings: 10 days, 0 to 100 scale (0 no effect, 100 complete control)
# Summary of the method: as §1
# [28] = test system: horseweed; test: Test C postemergence; assay type: in vivo, Erigeron canadensis; settings: 10 days, 0 to 100 scale (0 no effect, 100 complete control)
# Summary of the method: as §1
structure (smiles),measurement,setting,value
Cc1cccc2c1O[C@@H](C)CN2C(=O)c1cccc(-n2cnc([N+](=O)[O-])n2)c1 [Compound 306],"Ryegrass, Italian plant response rating",[1]; 500 g ai/ha,40
same,"Ryegrass, Italian plant response rating","[1]; Test C, 125 g ai/ha",30
same,"Plant response rating, Rice (Flood)",[2],0
same,"Plant response rating, Barnyardgrass (Flood)",[3],0
same,"Plant response rating, Galium","[4]; 500 g ai/ha, postemergence",50
same,"Plant response rating, Galium","[4]; Postemergence, 125 g ai/ha",30
same,"Plant response rating, Sedge, Umbrella (Flood)",[5],0
same,Wheat plant response rating,[6]; 500 g ai/ha,0
same,Wheat plant response rating,"[6]; Test C, 125 g ai/ha",0
same,"Plant response rating, Foxtail, Green","[7]; 500 g ai/ha, postemergence",50
same,"Plant response rating, Foxtail, Green","[7]; Postemergence, 125 g ai/ha",30
same,"Plant response rating, Oat, Wild","[8]; 500 g ai/ha, postemergence",0
same,"Plant response rating, Oat, Wild","[8]; Postemergence, 125 g ai/ha",0
same,Blackgrass plant response rating,[9],0
same,"Plant response rating, Ducksalad (Flood)",[10],0
same,Ragweed plant response rating,[11]; 500 g ai/ha,20
same,Ragweed plant response rating,"[11]; Test C, 125 g ai/ha",20
same,"Plant response rating, Ryegrass, Italian","[12]; 500 g ai/ha, postemergence",0
same,"Plant response rating, Ryegrass, Italian","[12]; Postemergence, 125 g ai/ha",0
same,"Plant response rating, Barnyardgrass","[13]; 500 g ai/ha, postemergence",10
same,"Plant response rating, Barnyardgrass","[13]; Postemergence, 125 g ai/ha",10
same,"Plant response rating, Kochia","[14]; 500 g ai/ha, postemergence",10
same,"Plant response rating, Kochia","[14]; Postemergence, 125 g ai/ha",10
same,"Foxtail, Green plant response rating",[15]; 500 g ai/ha,50
same,"Foxtail, Green plant response rating","[15]; Test C, 125 g ai/ha",0
same,"Pigweed, Palmer plant response rating",[16]; 500 g ai/ha,10
same,"Pigweed, Palmer plant response rating","[16]; Test C, 125 g ai/ha",0
same,Barnyardgrass plant response rating,[17]; 500 g ai/ha,0
same,Barnyardgrass plant response rating,"[17]; Test C, 125 g ai/ha",0
same,"Plant response rating, Ragweed","[18]; 500 g ai/ha, postemergence",0
same,"Plant response rating, Ragweed","[18]; Postemergence, 125 g ai/ha",30
same,"Plant response rating, Corn","[19]; 500 g ai/ha, postemergence",10
same,"Plant response rating, Corn","[19]; Postemergence, 125 g ai/ha",0
same,Kochia plant response rating,[20]; 500 g ai/ha,0
same,Kochia plant response rating,"[20]; Test C, 125 g ai/ha",0
same,Soybean plant response rating,[21]; 500 g ai/ha,0
same,Soybean plant response rating,"[21]; Test C, 125 g ai/ha",0
same,"Plant response rating, Blackgrass","[22]; 500 g ai/ha, postemergence",10
same,"Plant response rating, Blackgrass","[22]; Postemergence, 125 g ai/ha",0
same,"Oat, Wild plant response rating",[23]; 500 g ai/ha,0
same,"Oat, Wild plant response rating","[23]; Test C, 125 g ai/ha",0
same,"Plant response rating, Pigweed, Palmer","[24]; 500 g ai/ha, postemergence",20
same,"Plant response rating, Pigweed, Palmer","[24]; Postemergence, 125 g ai/ha",0
same,"Plant response rating, Soybean","[25]; 500 g ai/ha, postemergence",90
same,"Plant response rating, Soybean","[25]; Postemergence, 125 g ai/ha",30
same,Corn plant response rating,[26]; 500 g ai/ha,0
same,Corn plant response rating,"[26]; Test C, 125 g ai/ha",0
same,"Plant response rating, Wheat","[27]; 500 g ai/ha, postemergence",10
same,"Plant response rating, Wheat","[27]; Postemergence, 125 g ai/ha",0
same,"Plant response rating, Horseweed","[28]; 500 g ai/ha, postemergence",0
same,"Plant response rating, Horseweed","[28]; Postemergence, 125 g ai/ha",30
